One experiment deals with JAK1 (Homo sapiens (Human), UniProt P23458). Nature of the experiment: Jak biochemical HTRF assay, JAK1. Particulars: recombinant purified GST-tagged catalytic domain; HTRF format; [ATP] 31.8 μM. The text has this: (§1) Jak Biochemical HTRF Assay Protocol
(§2) Subsequent reagent additions employed an Agilent Bravo.

A further experiment concerns the target JAK2 (Homo sapiens (Human), UniProt O60674). Put plainly: Jak biochemical HTRF assay, JAK2. Particulars: recombinant purified GST-tagged catalytic domain, HTRF format.
From the text: as §1, §2

SMILES strings stand for the structures.

Chain of JAK1 (P23458 875-1153): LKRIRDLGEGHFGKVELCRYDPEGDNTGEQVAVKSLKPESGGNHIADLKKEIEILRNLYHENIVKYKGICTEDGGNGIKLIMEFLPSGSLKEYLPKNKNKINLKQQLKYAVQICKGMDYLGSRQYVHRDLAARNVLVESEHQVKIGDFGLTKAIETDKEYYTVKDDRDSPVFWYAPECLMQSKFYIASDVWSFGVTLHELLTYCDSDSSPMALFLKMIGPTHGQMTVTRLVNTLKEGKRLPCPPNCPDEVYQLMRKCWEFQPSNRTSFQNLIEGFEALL
Chain of JAK2 (O60674 849-1124): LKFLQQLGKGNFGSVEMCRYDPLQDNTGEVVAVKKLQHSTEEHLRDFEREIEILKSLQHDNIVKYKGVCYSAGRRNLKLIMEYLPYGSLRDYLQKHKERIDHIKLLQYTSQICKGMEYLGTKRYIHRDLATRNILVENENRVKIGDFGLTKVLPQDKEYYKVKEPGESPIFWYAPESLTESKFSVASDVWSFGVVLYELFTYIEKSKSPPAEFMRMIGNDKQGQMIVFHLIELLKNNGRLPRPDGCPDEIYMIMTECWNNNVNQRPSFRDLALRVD

`COCCOC(=O)N1CC[C@@H](n2cc(C(N)=O)c(Nc3ccc(F)cc3)n2)[C@H](C#N)C1` (racemic) [Example 5-29, 2-methoxyethyl (3R,4R and 3S,4S)-4-{4-carbamoyl-3-[(4-fluorophenyl)amino]-1H-pyrazol-1-yl}-3-cyanopiperidine-1-carboxylate]: the 50% inhibitory concentration (IC50) on JAK1 stood at 9 nM; at JAK2 ([ATP] 8.5 μM), 202 nM.

Regarding `N#C[C@@H]1CN(Cc2ccon2)CC[C@H]1n1cc(C(N)=O)c(Nc2ccc(F)cc2)n1` (racemic) [Example 6-24, 1-[(3R,4R and 3S,4S)-3-cyano-1-(isoxazol-3-ylmethyl)piperidin-4-yl]-3-[(4-fluorophenyl)amino]-1H-pyrazole-4-carboxamide], the results for the IC50 at JAK1 and at JAK2 ([ATP] 8.5 μM) were 3 nM and 34 nM, respectively.

`CC(C)(O)C1CC(CN2CC[C@@H](C#N)[C@H](n3cc(C(N)=O)c(Nc4ccc(F)cc4)n3)C2)C1` (mixture of isomers) [Example 6-11, 1-[(3S,4R and 3R,4S)-4-cyano-1-{[3-(1-hydroxy-1-methylethyl)cyclobutyl]methyl}piperidin-3-yl]-3-[(4-fluorophenyl)amino]-1H-pyrazole-4-carboxamide]: the half-maximal inhibitory concentration (IC50) on JAK1 is 25 nM; on JAK2 ([ATP] 8.5 μM), 533 nM.

On to `N#C[C@@H]1CN(C(=O)OCCCc2ccccc2)CC[C@H]1n1cc(C(N)=O)c(Nc2ccc(F)cc2)n1` (racemic) [Example 5-3, 3-phenylpropyl (3R,4R and 3S,4S)-4-{4-carbamoyl-3-[(4-fluorophenyl)amino]-1H-pyrazol-1-yl}-3-cyanopiperidine-1-carboxylate], for which the IC50 at JAK1 came out at 44 nM; on JAK2 ([ATP] 8.5 μM), 1010 nM.

`Cc1ncoc1CN1CC[C@@H](C#N)[C@H](n2cc(C(N)=O)c(Nc3ccc(F)cc3)n2)C1` [Example 7-2, 1-{(3S,4R, 3R,4S)-4-cyano-1-[(4-methyl-1,3-oxazol-5-yl)methyl]piperidin-3-yl}-3-[(4-fluorophenyl)amino]-1H-pyrazole-4-carboxamide]: the IC50 on JAK1 came to 0.6 nM; at JAK2 ([ATP] […]) it was 8 nM.

As for `CN(C)CC(C)(C)COC(=O)N1CC[C@@H](n2cc(C(N)=O)c(Nc3ccc(F)cc3)n2)[C@H](C#N)C1` (racemic) [Example 5-21, 3-(dimethylamino)-2,2-dimethylpropyl (3R,4R and 3S,4S)-4-{4-carbamoyl-3-[(4-fluorophenyl)amino]-1H-pyrazol-1-yl}-3-cyanopiperidine-1-carboxylate], the results for the IC50 at JAK1 and at JAK2 ([ATP] 8.5 μM) were 88 nM and greater than 1500 nM, respectively.

Turning to `N#C[C@@H]1CN(C(=O)OCCF)CC[C@H]1n1cc(C(N)=O)c(Nc2ccc(F)cc2)n1` (racemic) [Example 5-2, 2-fluoroethyl (3R,4R and 3S,4S)-4-{4-carbamoyl-3-[(4-fluorophenyl)amino]-1H-pyrazol-1-yl}-3-cyanopiperidine-1-carboxylate], the figures for the IC50 at JAK1 and at JAK2 ([ATP] 8.5 μM) were 4 nM and 104 nM, respectively.

Consider `Cn1ccc(CN2CC[C@@H](C#N)[C@H](n3cc(C(N)=O)c(Nc4ccc(F)cc4)n3)C2)n1` (racemic) [Example 6-5, 1-{(3S,4R and 3R,4S)-4-cyano-1-[(1-methyl-1H-pyrazol-3-yl)methyl]piperidin-3-yl}-3-[(4-fluorophenyl)amino]-1H-pyrazole-4-carboxamide], for which the IC50 on JAK1 is 2 nM; at JAK2 ([ATP] 8.5 μM), 14 nM.

On to `CC1=NOC(CN2CC[C@@H](C#N)[C@H](n3cc(C(N)=O)c(Nc4ccc(F)cc4)n3)C2)C1` (mixture of isomers) [Example 6-20, 1-{(3S,4R and 3R,4S)-4-cyano-1-[(3-methyl-4,5-dihydroisoxazol-5-yI)methyl]piperidin-3-yl}-3-[(4-fluorophenyl)amino]-1H-pyrazole-4-carboxamide], for which the IC50 is 6 nM at JAK1 and 98 nM at JAK2 ([ATP] 8.5 μM).

As to `CC(C)(C)OC(=O)N1CC[C@H](C#N)C(n2cc(C(N)=O)c(Nc3ccc(F)cc3)n2)C1` (mixture of isomers) [Example 2-1, tert-Butyl(3R,4S and 3S,4R)-3-{4-carbamoyl-3-[(4-fluorophenyl)amino]-1H-pyrazol-1-yl}-4-cyanopiperidine-1-carboxylate], the values for the 50% inhibitory concentration (IC50) at JAK1 and on JAK2 ([ATP] 8.5 μM) were 6 nM and 39 nM, respectively.

As to `CCn1ccnc1CN1CC[C@@H](n2cc(C(N)=O)c(Nc3ccc(F)cc3)n2)[C@H](C#N)C1` (racemic) [Example 6-38, 1-{(3R,4R and 3S,4S)-3-cyano-1-[(1-ethyl-1H-imidazol-2-yl)methyl]piperidin-4-yl}-3-[(4-fluorophenyl)amino]-1H-pyrdzole-4-carboxamide], the values for the IC50 at JAK1 and on JAK2 ([ATP] 8.5 μM) were 7 nM and 82 nM, respectively.

For the compound `C[C@]1(C#N)CS(=O)(=O)CC1n1cc(C(N)=O)c(Nc2ccc(F)cc2)n1` (stereo partly drawn) [Example 13-5, 1-((3S,4R or 3R4S)-4-cyano-4-methyl-1,1-dioxidotetrahydrothiophen-3-yl)-3-((4-fluorophenyl)amino)-1H-pyrazole-4-carboxamide], the IC50 on JAK1 turned out to be 0.5 nM; on JAK2 ([ATP] […]) it was 6 nM.

With `N#C[C@@H]1CCN(CC2CCOC2)C[C@H]1n1cc(C(N)=O)c(Nc2ccc(F)cc2)n1` (mixture of isomers) [Example 6-21, 1-[(3S,4R and 3R,4S)-4-cyano-1-(tetrahydrofuran-3-ylmethyl)piperidin-3-yl]-3-[(4-fluorophenyl)amino]-1H-pyrdzole-4-carboxamide], the IC50 on JAK1 came to 6 nM; at JAK2 ([ATP] 8.5 μM) it was 63 nM.

On to `N#C[C@@H]1CCOC[C@H]1n1cc(C(N)=O)c(Nc2cncc(F)c2)n1` (single isomer, unassigned) [Example 9-31, 1-[(3S,4R or 3R,4S)-4-cyanotetrahydro-2H-pyran-3-yl]-3-[(5-fluoropyridin-3-yl)amino]-1H-pyrazole-4-carboxamide], for which the concentration for half-maximal inhibition (IC50) was 0.9 nM at JAK1 and 7 nM on JAK2 ([ATP] 8.5 μM).

Consider `N#C[C@H]1CCOC[C@@H]1n1cc(C(N)=O)c(Nc2ccc(OCC(F)(F)F)nc2)n1` (single isomer, unassigned) [Example 9-36, 1-[(3R,4S or 3S,4R)-4-cyanotetrahydro-2H-pyran-3-yl]-3-{[6-(2,2,2-trifluoroethoxy)pyridin-3-yl]amino}-1H-pyrazole-4-carboxamide], for which the IC50 at JAK1 was found to be 0.6 nM; on JAK2 ([ATP] 8.5 μM), 3 nM.

For the compound `N#C[C@@H]1CNCCC1n1cc(C(N)=O)c(Nc2ccc(F)cc2)n1` (mixture of isomers) [Example 3-3, 1-[(3R,4R and 3S,4S)-3-cyanopiperidin-4-yl]-3-[(4-fluorophenyl)amino]-1H-pyrazole-4-carboxamide], the IC50 on JAK1 turned out to be 102 nM; on JAK2 ([ATP] 8.5 μM) it was 628 nM.

On to `N#C[C@@H]1CCN(C(=O)OCc2ccccc2)CC1n1cc(C(N)=O)c(Nc2ccc(F)cc2)n1` (mixture of isomers) [Example 5-82, benzyl (3S,4R and 3R,4S)-3-{4-carbamoyl-3-[(4-fluorophenyl)amino]-1H-pyrazol-1-yl}-4-cyanopiperidine-1-carboxylate], for which the IC50 worked out at 2 nM at JAK1 and 53 nM at JAK2 ([ATP] 8.5 μM).

On to `CC(C)(COC(=O)N1CC[C@@H](C#N)[C@H](n2cc(C(N)=O)c(Nc3ccc(F)cc3)n2)C1)n1cccn1` (mixture of isomers) [Example 5-92, 2-methyl-2-(1H-pyrazol-1-yl)propyl (3S,4Rand 3R, 4S)-3-{4-carbamoyl-3-[(4-fluorophenyl)amino]-1H-pyrazol-1-yl}-4-cyanopiperidine-1-carboxylate], for which the IC50 is 27 nM on JAK1 and 383 nM at JAK2 ([ATP] […]).

For the origin of these results see patent publication US9394282B2, “Pyrazole carboxamides as Janus kinase inhibitors” (Merck Sharp & Dohme Corp., priority 2011, dated 2016).
